Reference: publication PMC8773213, “In Vitro Anticancer Activity and Mechanism of Action of an Aziridinyl Galactopyranoside” (Biomedicines, 2021)

Tests used:
[1] = test system: A549 cells; assay type: cell-based; conditions: A549, 48 h, antioxidant added 1 h before; MTT
Experimental: (§1) Exponentially growing cells were seeded in 96-well plates and allowed to attach and grow for 24 h. The cells were then treated with increasing concentrations of the tested drugs. At the end of the treatment period, cell viability was measured with the MTT assay or the resazurin assay, two widely used techniques.
In the case of the MTT assay, this technique detects viable cells using the ability of these cells to reduce the yellow tetrazolium MTT to an insoluble colored formazan product. Subsequently, this product was solubilized and analyzed by spectrophotometry. Dead cells cannot reduce the MTT into the colored formazan product. Briefly, 24 h after plating, cells were treated with the tested compounds for 48 h; except in experiments with DNA repair-proficient and -deficient cell lines, in which cells were only exposed for 24 h to drugs and allowed to grow for an additional 48 h in drug-free medium to allow them to repair possible DNA damage induced by the tested drugs. After the treatment period, the medium was removed, the cells were washed once with PBS and 125 μL MTT (1 mg/mL in medium) was added to each well. Plates were incubated for 2–4 h and then 80 μL 20% SDS in 0.02 M HCl was added to each well. Finally, plates were incubated overnight at 37 °C and optical densities were measured at 540 nm using an absorbance spectrophotometer microplate reader.
(§2) In both assays, cell viability was expressed as percentage compared to untreated cells. Results were expressed as the means ± standard error of the mean (SEM). All data are from at least three independent experiments.

[2] = test system: PC3 (Human prostate cancer cells); experiment: Resazurin cell viability assay, PC3; assay type: cell-based; conditions: 72 h, read-out: IC50 (Mean ± SEM, µM), PC3
Experimental: as §1
(§3) The resazurin assay is a redox-based colorimetric/fluorometric technique based on the ability of viable cells to reduce the blue compound resazurin into the pink, fluorescent and soluble product resorufin. The amount of resorufin produced is generally proportional to the number of living cells. In this assay, 24 h after seeding, cells were exposed to the tested drugs for 72 h. Then 100 μL resazurin in medium was added to each well (final concentration of 10 μg/mL) and, one hour later the fluorescence intensity was measured at 530/590 nm (excitation/emission) using a fluorescence microplate reader.
as §2

[3] = test system: U2OS (Human osteosarcoma cells); experiment: Resazurin cell viability assay, U2OS; assay type: cell-based; conditions: 72 h, read-out: IC50 (Mean ± SEM, µM), U2OS
Experimental: as §1, §3, §2

[4] = test system: HL-60 (Human acute promyelocytic leukemia cells); experiment: Resazurin cell viability assay, HL-60; assay type: cell-based; conditions: 72 h, read-out: IC50 (Mean ± SEM, µM), HL-60
Experimental: as §1, §3, §2

[5] = test system: BJ-RASV12 (HRASV12-transformed BJ-SV40T cells); experiment: Resazurin cell viability assay, BJ-RASV12; assay type: cell-based, human; conditions: 72 h
Experimental: as §1, §3, §2

[6] = test system: BJ-hTERT (hTERT-immortalized skin non-malignant BJ cells); experiment: Resazurin cell viability assay, BJ-hTERT; assay type: cell-based; conditions: Homo sapiens, 72 h, read-out: IC50 (Mean ± SEM, µM), BJ-hTERT
Experimental: as §1, §3, §2

[7] = test system: MRC-5 (Human lung non-malignant cells); experiment: Resazurin cell viability assay, MRC-5; assay type: cell-based; conditions: MRC5, 72 h, read-out: IC50 (Mean ± SEM, µM), MRC-5
Experimental: as §1, §3, §2

[8] = test system: VH10 (Human skin non-malignant cells); experiment: Resazurin cell viability assay, VH10; assay type: cell-based; conditions: 72 h, read-out: IC50 (Mean ± SEM, µM), VH10
Experimental: as §1, §3, §2

[9] = test system: HeLa (Human cervical carcinoma cells); experiment: Resazurin cell viability assay, HeLa; assay type: cell-based; conditions: 72 h, read-out: IC50 (Mean ± SEM, µM), HeLa
Experimental: as §1, §3, §2

[10] = test system: cancer cell lines versus MRC-5 and VH10 normal cell lines; experiment: Resazurin assay, panel of cancer cells versus normal cells; assay type: cell-based, human; conditions: 72 h
Experimental: as §1, §3, §2
Next, we evaluated the cytotoxic activity of AzGalp in cancer cell lines derived from solid tumors (HeLa, PC3, U2OS, HepG2 and SW480) and from hematological malignancies (NB4 and HL-60). To study the selectivity against cancer cells, MRC-5 and VH10 cells were used as normal cell lines; 5-FU was used as a positive control. All cells were treated with AzGalp or 5-FU for 72 h and cell viability was evaluated with the resazurin assay. This assay was used to determine cell viability instead of the MTT assay because the HL60 and NB4 cell lines grow in suspension. […] Leukemia cell lines were approximately 15 times more sensitive than normal cells to the cytotoxicity of our aziridine.

[11] = test system: NB4 (Human acute promyelocytic leukemia cells); experiment: Resazurin cell viability assay, NB4; assay type: cell-based; conditions: 72 h, read-out: IC50 (Mean ± SEM, µM), NB4
Experimental: as §1, §3, §2

[12] = test system: BJ-SV40T (SV40T-transformed BJ-hTERT cells); experiment: Resazurin cell viability assay, BJ-SV40T; assay type: cell-based; conditions: Homo sapiens, 72 h, read-out: IC50 (Mean ± SEM, µM), BJ-SV40T
Experimental: as §1, §3, §2

[13] = test system: SW480 (Human colon adenocarcinoma cells); experiment: Resazurin cell viability assay, SW480; assay type: cell-based; conditions: 72 h, read-out: IC50 (Mean ± SEM, µM), SW480
Experimental: as §1, §3, §2

[14] = test system: HepG2 (Human hepatocellular carcinoma cells); experiment: Resazurin cell viability assay, HepG2; assay type: cell-based; conditions: 72 h, read-out: IC50 (Mean ± SEM, µM), HepG2
Experimental: as §1, §3, §2

[15] = test system: A549 cells; experiment: Glycolysis inhibition (glucose consumed, lactate produced); assay type: cell-based, human; conditions: A549, 8 h
Experimental: Inhibition of glycolysis was determined by measuring glucose consumed (initial product of glycolysis) and lactate produced (final product of glycolysis) in untreated and treated cells. Cells were seeded in 6-well plates at a density of 10^6 cells/well and were allowed to attach for a few hours before treatment with the tested compounds for 8 h. After treatment, medium was recollected and glucose and lactate concentrations were determined using the Accutrend® Plus analyzer together with Accutrend glucose strips and BM-Lactate strips (Roche Diagnostics, Barcelona, Spain). After calibrating the instrument with glucose and lactate calibration strips, test strips were used to determine glucose and lactate levels through colorimetric oxidase mediator reactions according to the manufacturer’s instructions. The results are expressed as percentage of glucose consumption and percentage of lactate production in relation to untreated cells. Data were averaged from two independent experiments and shown as mean ± SEM.

[16] = test system: AA8 cells; experiment: Comet assay (DNA damage); assay type: cell-based, Chinese hamster; conditions: 1 mM, 4 h
Description: The single cell gel electrophoresis assay, also known as comet assay, is a widely used technique for the study of levels of damage in cellular DNA. In this assay, individual cells embedded in agarose are lysed, electrophoresed, stained with a fluorescent dye and examined under an epifluorescence microscope. […] The quantity of DNA present in the tail is indicative of DNA damage. This assay has been described in detail by Singh et al.. We followed this protocol with minor modifications previously described. Briefly, standard slides were immersed in 1% normal melting agarose at 55 °C, left to allow the agarose to solidify and kept at 4 °C until use. Cells were seeded in 6-well plates, allowed to grow for 24 h and then cells were exposed to AzGalp or CTP (positive control) for 4 h. At the end of the treatment, cells were harvested by trypsinization, washed with PBS and resuspended in PBS at a concentration of approximately 1 million cells/mL; 10 µL cell suspension was mixed with 85 μL of low-melting agarose (LMA) at 37 °C and the mixture was quickly added to the slides with the first layer of agarose, spread using a coverslip and kept at 4 °C for 8 min to allow the LMA to solidify. The coverslips were then removed and another layer of 100 μL of LMA at 37 °C was added, covered with a coverslip and allowed to solidify at 4 °C for 8 min. After removing the coverslips, the slides were incubated in the dark for 1 h at 4 °C in a lysis buffer (pH 10.0) containing 0.25 M NaOH, 10% DMSO, 1% Triton X-100, 10 mM Tris-HCl, 100 mM Na2-EDTA and 2.5 M NaCl. Next, alkaline denaturation with electrophoretic buffer (300 mM NaOH and 1 mM Na2-EDTA) was carried out in an electrophoresis chamber for 20 min and then electrophoresis was performed at 1 V/cm for 20 min. […] DNA damage levels were quantified for each cell and expressed as percent of DNA in the tail and as the tail moment (defined as the product of the tail length and the fraction of total DNA in the tail). The results were averaged from two independent experiments and expressed as mean ± SEM.

[17] = test system: UV4 and AA8 cells; experiment: Clonogenic survival assay; assay type: cell-based, Chinese hamster; conditions: 3 µM, 24 h, then colonies in drug-free medium
Experimental: Cell survival after treatment was determined by clonogenic assay. AA8 and UV4 cells were seeded in 6 cm Petri dishes 4 h prior to treatment for 24 h. After that, drugs were removed and cells were allowed to form colonies for eight days. The colonies were then stained with 0.4% methylene blue in methanol for 15 min. Surviving colonies made up of more than 50 cells per colony were counted. Results were represented as percentage of survival referred to untreated cells.

For OO [H2O2, hydrogen peroxide, reference compound], the “Effect of MnTMPyP on cytotoxicity” value [1] was “decreased in the presence of the three antioxidants”, the “Effect of NAC on cytotoxicity” value [1] was “decreased in the presence of the three antioxidants” and the “Effect of catalase on cytotoxicity” value [1] was “decreased in the presence of the three antioxidants”.
For O=c1[nH]cc(F)c(=O)[nH]1 [5-FU, 5-fluorouracil, reference compound], the IC50 [2] was 1.5 ± 0.3 µM, the IC50 [3] was 6.4 ± 0.7 µM and the IC50 [4] was 0.9 ± 0.8 µM. For the same molecule, the “Sensitivity of BJ-RASV12 malignant cells relative to BJ-hTERT non-malignant cells” value ([5]; resazurin) was “did not observe this selectivity”, the IC50 ([5]; Homo sapiens, resazurin assay, read-out: IC50 (Mean ± SEM, µM), BJ-RASV12) was 3 ± 1.4 µM and the IC50 [6] was 2.4 ± 0.5 µM. For the same molecule, the IC50 [7] was > 1000 µM, the IC50 [8] was > 1000 µM and the IC50 [9] was 66.3 ± 27 µM. For the same molecule, the “Viability of leukemia cells” value ([10]; HL60 and NB4, concentrations between 10 and 100 µM) was “higher than 20%”, the “Viability of normal cells” value ([10]; MRC-5 and VH10, concentrations between 10 and 100 µM) was “showed cytotoxicity against these cells” and the IC50 [11] was 2.5 ± 0.3 µM. For the same molecule, the IC50 [12] was 5.4 ± 0.7 µM, the IC50 [13] was 2.9 ± 1.3 µM and the IC50 [14] was 0.6 ± 0.3 µM.
In the case of O=C(O)C(Cl)Cl [DCA, dichloroacetate, reference compound], the “Glycolytic activity (glucose consumption and lactate production)” value [15] is reported as “reduced lactate production and glucose consumption”.
In the case of COc1cc(C(=O)O)cc(OC)c1O [Syringic acid, reference compound], the “DNA damage in comet assay” value [16] is reported as “does not induce DNA damage”.
With COc1cc([C@@H]2c3cc4c(cc3[C@@H](O[C@@H]3O[C@@H]5CO[C@@H](C)O[C@H]5[C@H](O)[C@H]3O)[C@H]3COC(=O)[C@H]23)OCO4)cc(OC)c1O [etoposide, reference compound] the “Cell survival, UV4 versus AA8 (clonogenic assay)” value [17] was “UV4 cells were more sensitive”.
